Test results reported in patent US10077261B2, “Imidazolin-5-one derivative useful as FASN inhibitors for the treatment of cancer” (Janssen Pharmaceutica NV, priority 2012, dated 2018).

Experiments:
[1] = system: PC-3M-Luc-C6 prostate cells; assay: In vitro PC-3M-Luc-C6 prostate cell proliferation assay in lipid reduced medium; assay type: cell-based; details: 96 h, read-out: pIC50 PC-3M-Luc-C6 prostate cell (converted)
A2780 ovarian cells [2] = assay: A2780 ovarian cell proliferation assay in lipid reduced medium, without palmitate (MTT); assay type: cell-based; details: Homo sapiens, A2780, 96 h; read-out: pIC50 A2780 Ovarian Cell, Without Palmitate (converted)
[3] = molecular target: Fatty Acid Synthase Keto-reductase Domain (FASN KR) (Homo sapiens, UniProt P49327); assay: Fatty Acid Synthase keto-reductase domain (FASN KR) inhibition, NADPH oxidation at 340 nm
Sequence of Fatty Acid Synthase Keto-reductase Domain (FASN KR) (P49327 whole entry, the tested form may be a part): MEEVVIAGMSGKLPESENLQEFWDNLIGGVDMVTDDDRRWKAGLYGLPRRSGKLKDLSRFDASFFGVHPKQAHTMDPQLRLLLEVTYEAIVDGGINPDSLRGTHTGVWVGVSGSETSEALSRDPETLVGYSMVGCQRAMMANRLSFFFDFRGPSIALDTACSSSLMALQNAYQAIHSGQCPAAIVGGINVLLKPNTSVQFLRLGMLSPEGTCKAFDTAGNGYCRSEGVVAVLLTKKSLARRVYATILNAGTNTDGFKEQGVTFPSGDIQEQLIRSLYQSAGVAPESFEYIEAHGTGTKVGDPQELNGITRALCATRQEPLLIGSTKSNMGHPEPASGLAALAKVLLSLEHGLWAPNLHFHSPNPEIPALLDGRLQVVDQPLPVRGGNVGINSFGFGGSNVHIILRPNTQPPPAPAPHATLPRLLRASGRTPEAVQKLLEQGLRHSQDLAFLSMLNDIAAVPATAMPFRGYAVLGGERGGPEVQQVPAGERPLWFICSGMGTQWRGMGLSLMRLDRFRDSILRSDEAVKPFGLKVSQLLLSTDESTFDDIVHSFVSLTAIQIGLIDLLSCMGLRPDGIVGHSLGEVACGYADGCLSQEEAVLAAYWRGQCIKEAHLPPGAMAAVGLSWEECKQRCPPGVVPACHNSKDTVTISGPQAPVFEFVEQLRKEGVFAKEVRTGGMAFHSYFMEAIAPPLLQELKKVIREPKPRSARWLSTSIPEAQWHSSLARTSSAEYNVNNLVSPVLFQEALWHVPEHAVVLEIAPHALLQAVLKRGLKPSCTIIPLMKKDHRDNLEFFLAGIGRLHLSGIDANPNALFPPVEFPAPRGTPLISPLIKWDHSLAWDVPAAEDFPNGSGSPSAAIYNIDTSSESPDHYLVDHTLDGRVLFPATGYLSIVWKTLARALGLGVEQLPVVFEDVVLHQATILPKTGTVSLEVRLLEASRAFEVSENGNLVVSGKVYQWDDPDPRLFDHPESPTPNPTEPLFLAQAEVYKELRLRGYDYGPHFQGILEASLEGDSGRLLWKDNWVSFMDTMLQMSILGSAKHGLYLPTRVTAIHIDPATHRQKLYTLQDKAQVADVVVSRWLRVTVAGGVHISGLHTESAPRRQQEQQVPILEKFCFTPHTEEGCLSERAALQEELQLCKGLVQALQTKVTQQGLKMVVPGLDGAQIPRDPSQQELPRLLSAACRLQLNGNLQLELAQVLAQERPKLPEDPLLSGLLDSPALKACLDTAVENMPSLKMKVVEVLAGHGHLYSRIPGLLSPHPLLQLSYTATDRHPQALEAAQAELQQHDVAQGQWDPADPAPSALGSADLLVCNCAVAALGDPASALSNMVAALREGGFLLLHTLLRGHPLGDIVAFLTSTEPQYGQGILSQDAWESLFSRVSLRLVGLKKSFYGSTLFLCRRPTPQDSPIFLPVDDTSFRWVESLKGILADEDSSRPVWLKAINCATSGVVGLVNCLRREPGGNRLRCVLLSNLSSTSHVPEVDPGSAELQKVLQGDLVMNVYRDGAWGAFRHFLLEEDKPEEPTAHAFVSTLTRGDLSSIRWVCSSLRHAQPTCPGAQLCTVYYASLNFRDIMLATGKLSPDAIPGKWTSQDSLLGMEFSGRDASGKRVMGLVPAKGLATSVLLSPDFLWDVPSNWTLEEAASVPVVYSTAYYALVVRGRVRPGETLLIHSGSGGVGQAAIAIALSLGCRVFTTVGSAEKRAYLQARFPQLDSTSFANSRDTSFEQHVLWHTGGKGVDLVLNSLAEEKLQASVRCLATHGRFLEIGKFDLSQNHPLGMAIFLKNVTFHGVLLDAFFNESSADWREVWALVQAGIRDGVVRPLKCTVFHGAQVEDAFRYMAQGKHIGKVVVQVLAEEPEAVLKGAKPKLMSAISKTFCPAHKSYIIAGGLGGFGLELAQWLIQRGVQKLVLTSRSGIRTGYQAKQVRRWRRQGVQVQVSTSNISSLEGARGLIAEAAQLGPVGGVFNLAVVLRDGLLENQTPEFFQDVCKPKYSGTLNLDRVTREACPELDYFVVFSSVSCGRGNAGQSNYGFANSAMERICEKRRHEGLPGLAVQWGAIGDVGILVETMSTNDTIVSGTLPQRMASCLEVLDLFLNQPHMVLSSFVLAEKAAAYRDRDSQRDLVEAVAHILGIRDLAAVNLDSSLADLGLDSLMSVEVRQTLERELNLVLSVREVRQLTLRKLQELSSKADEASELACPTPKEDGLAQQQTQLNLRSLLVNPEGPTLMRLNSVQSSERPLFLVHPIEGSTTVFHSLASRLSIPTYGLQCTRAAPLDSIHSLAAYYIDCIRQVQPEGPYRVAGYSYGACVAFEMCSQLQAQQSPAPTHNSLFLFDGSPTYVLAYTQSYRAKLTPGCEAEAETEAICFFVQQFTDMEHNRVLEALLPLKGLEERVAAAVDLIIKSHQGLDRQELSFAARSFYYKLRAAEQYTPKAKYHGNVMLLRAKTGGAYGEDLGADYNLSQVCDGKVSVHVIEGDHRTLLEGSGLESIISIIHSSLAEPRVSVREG
Description: After 20 minutes incubation at room temperature the plate was measured again (T2).
The decrease in absorbance was calculated as (Absorbance before incubation T1)−(Absorbance following incubation T2).
A plot of Controlmin versus test compound concentration was fitted to a 4-parameter logistic curve using a non-linear least squares regression method.

A2780 ovarian cells [4] = assay: A2780 ovarian cell proliferation assay in lipid reduced medium, with palmitate (MTT); assay type: cell-based; details: Homo sapiens, A2780, 96 h; read-out: pIC50 A2780 Ovarian Cell, With Palmitate (converted)
Method in brief: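 In this palmitate-supplemented format, compound dilutions (30 μM down to 0.01 μM) are added to cells in lipid-reduced serum with 25 μM palmitate, 0.2% fatty-acid-free BSA and 0.25% ethanol. After four days (96 h) MTT absorbance at 544 nm is recorded and fitted by minimum sum of squares.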

[5] = system: LNCaP-Vancouver prostate cells; assay: In vitro LNCaP Vancouver prostate cell proliferation assay in lipid reduced medium; assay type: cell-based; details: read-out: pIC50 LNCaP_Vancouver prostate cell (converted)
[6] = molecular target: T1, hFASN enzyme (full length) (Homo sapiens, UniProt P49327); assay: Fatty Acid Synthase (FASN) inhibition scintillation proximity assay; assay type: biochemical; details: for inhibition at 10 µM: read-out: Human FASN % inhibition @ 10 μM, 10 μM test compound; for IC50: read-out: Human FASN pIC50 (converted)
T1 construct: 10 μL hFASN enzyme (full length, 300 ng, purified in house); made in house
T1 sequence (P49327 whole entry): as the sequence (P49327 whole entry, the tested form may be a part) above
Method in brief: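 Proximity read-out: hydrophobic ^3H-palmitate formed from ^3H-acetyl-CoA and malonyl-CoA binds streptavidin imaging beads, imaged at 610±20 nm at least 24 h after stopping. Enzyme was in-house purified full-length hFASN, 300 ng, in pH 7.5 phosphate/DTT buffer; compound series 30 μM down to 0.01 μM, normalized to controls, 4-parameter fit.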

Row | Structure (SMILES) | IC50 [1] [nM] | IC50 (A2780 ovarian cells [2]) [nM] | IC50 [3] [nM] | IC50 (A2780 ovarian cells [4]) [nM] | IC50 [5] [nM] | inhibition at 10 µM [6] [%] | IC50 [6] [nM]
1 | Cn1ccc2ccc(-c3ccc(C4=NC5(CC5)C(=O)N4CC4CN(C(=O)C5CC5)C4)cc3)cc21 [compound 541, 6-{[1-(Cyclopropylcarbonyl)azetidin-3-yl]methyl}-5-[4-(1-methyl-1H-indol-6-yl)phenyl]-4,6-diazaspiro[2.4]hept-4-en-7-one] | 309 | 282 | 339 | > 10000 | ~1020 | 100 | 110
2 | CC(O)C(=O)N1CC[C@@H](CN2C(=O)C3(CCOCC3)N=C2c2ccc(-c3ccc4cccnc4c3)cc2)C1 (stereo partly drawn) [compound 662, 3-{[(3R)-1-(2-Hydroxypropanoyl)pyrrolidin-3-yl]methyl}-2-(4-quinolin-7-ylphenyl)-8-oxa-1,3-diazaspiro[4.5]dec-1-en-4-one] | 708 | 457 | 617 | > 10000 | 2880 | 98 | 302
3 | COc1ccc2cc(-c3ccc(C4=NC5(CC5)C(=O)N4C[C@@H]4CCN(C(=O)C5(O)CC5)C4)cc3)ccc2c1 [compound 203, (R)-6-((1-(1-hydroxycyclopropanecarbonyl)pyrrolidin-3-yl)methyl)-5-(4-(6-methoxynaphthalen-2-yl)phenyl)-4,6-diazaspiro[2.4]hept-4-en-7-one] | 5.62 | ~4.57 | 46.8 | > 10000 | 21.4 | 99 | 57.5
4 | Cn1cc(-c2ccc(-c3ccc(C4=NC5(CC5)C(=O)N4C[C@H]4CCN(C(=O)C5CC5)C4)cc3)cc2)cn1 [compound 411, 6-{[(3S)-1-(Cyclopropylcarbonyl)pyrrolidin-3-yl]methyl}-5-[4′-(1-methyl-1H-pyrazol-4-yl)biphenyl-4-yl]-4,6-diazaspiro[2.4]hept-4-en-7-one] | 162 | 126 | 427 | > 10000 | 525 | 100 | 158
5 | Nc1cccc(-c2ccc(C3=NC4(CC4)C(=O)N3C[C@@H]3CCN(C(=O)C4CC4)C3)cc2)n1 [compound 400, 5-[4-(6-Aminopyridin-2-yl)phenyl]-6-{[(3R)-1-(cyclopropylcarbonyl)pyrrolidin-3-yl]methyl}-4,6-diazaspiro[2.4]hept-4-en-7-one] | 214 | 229 | 479 | > 6170 | 1200 | 101 | 195
6 | Cc1cc(-c2ccc3oc(C)c(C)c3c2)ccc1C1=NC2(CC2)C(=O)N1C[C@@H]1CCN(C(=O)C2CC2)C1 [compound 282, (R)-6-((1-(cyclopropanecarbonyl)pyrrolidin-3-yl)methyl)-5-(4-(2,3-dimethylbenzofuran-5-yl)-2-methylphenyl)-4,6-diazaspiro[2.4]hept-4-en-7-one] | ~1700 | ~2090 | 224 | > 10000 | ~2140 | 106 | 87.1
7 | Cn1cc(-c2ccc(-c3ccc(C4=NC5(CC5)C(=O)N4CC4CN(C(=O)C5(C)CC5)C4)c(F)c3)cc2)cn1 [compound 358, 5-(3-fluoro-4′-(1-methyl-1H-pyrazol-4-yl)-[1,1′-biphenyl]-4-yl)-6-((1-(1-methylcyclopropanecarbonyl)azetidin-3-yl)methyl)-4,6-diazaspiro[2.4]hept-4-en-7-one] | 14.8 | 3.16 | 51.3 | > 10000 | 77.6 | 100 | 30.9
8 | Cc1ccc2nc(-c3ccc(C4=NC5(CC5)C(=O)N4CC4CN(C(=O)C5CC5)C4)c(F)c3)sc2c1 [compound 270, 6-((1-(cyclopropanecarbonyl)azetidin-3-yl)methyl)-5-(2-fluoro-4-(6-methylbenzo[d]thiazol-2-yl)phenyl)-4,6-diazaspiro[2.4]hept-4-en-7-one] | 34.7 | ~27.5 | 166 | ~5500 | 195 | 102 | 35.5
9 | Cn1ncc2cc(-c3ccc(C4=NC5(CC5)C(=O)N4C[C@@H]4CCN(C(=O)C5(C)CC5)C4)cc3)ccc21 [compound 201, (R)-5-(4-(1-methyl-1H-indazol-5-yl)phenyl)-6-((1-(1-methylcyclopropanecarbonyl)pyrrolidin-3-yl)methyl)-4,6-diazaspiro[2.4]hept-4-en-7-one] | ~6.61 | ~4.37 | 33.9 | ~3470 | 20.9 | 100 | 43.7
10 | Cn1ncc2cc(-c3ccc(C4=NC5(CC5)C(=O)N4C[C@@H]4CCN(C(=O)C5(O)CC5)C4)cc3)ccc21 [compound 200] | 6.46 | ~3.89 | 34.7 | > 10000 | ~33.9 | 102 | 34.7
11 | Cc1ccc(-c2ccc(-c3ccc(C4=NC5(CC5)C(=O)N4C[C@H]4CCN(C(=O)C5CC5)C4)cc3)cc2)cc1 [compound 413, 6-{[(3S)-1-(Cyclopropylcarbonyl)pyrrolidin-3-yl]methyl}-5-(4″-methyl-1,1′:4′,1″-terphenyl-4-yl)-4,6-diazaspiro[2.4]hept-4-en-7-one] | 479 | ~676 | 891 | 7240 | 447 | 91 | 302
12 | CCn1ncc2cc(-c3ccc(C4=NC5(CC5)C(=O)N4CC4CN(C(=O)C5CC5)C4)c(F)c3)ccc21 [compound 521, 6-{[1-(Cyclopropylcarbonyl)azetidin-3-yl]methyl}-5-[4-(1-ethyl-1H-indazol-5-yl)-2-fluorophenyl]-4,6-diazaspiro[2.4]hept-4-en-7-one] | 603 | ~339 | 676 | > 10000 | 1910 | 94 | 513
13 | CC(C)n1cc(-c2ccc(-c3ccc(C4=NC5(CC5)C(=O)N4CC4CN(C(=O)C5CC5)C4)c(F)c3)cc2)cn1 [compound 327, 6-((1-(cyclopropanecarbonyl)azetidin-3-yl)methyl)-5-(3-fluoro-4′-(1-isopropyl-1H-pyrazol-4-yl)-[1,1′-biphenyl]-4-yl)-4,6-diazaspiro[2.4]hept-4-en-7-one] | 34.7 | 10.5 | 158 | 8130 | 138 | 104 | 32.4
14 | Cc1cc(-c2ccc3ccc(Cl)nc3c2)ccc1C1=NC2(CC2)C(=O)N1CC1CN(C(=O)C2(C)CC2)C1 [compound 594, 5-[4-(2-Chloroquinolin-7-yl)-2-methylphenyl]-6-({1-[(1-methylcyclopropyl)carbonyl]azetidin-3-yl}methyl)-4,6-diazaspiro[2.4]hept-4-en-7-one] | ~589 | 617 | 1070 | > 10000 | 1910 | 102 | 245
15 | NC(=O)c1cccc(-c2ccc(C3=NC4(CC4)C(=O)N3C[C@@H]3CCN(C(=O)C4CC4)C3)cc2)c1 [compound 494, 4′-(6-{[(3R)-1-(Cyclopropylcarbonyl)pyrrolidin-3-yl]methyl}-7-oxo-4,6-diazaspiro[2.4]hept-4-en-5-yl)biphenyl-3-carboxamide] | 891 | 692 | 661 | > 10000 | 4680 | 95 | 219
16 | Cn1ccc(-c2ccc(-c3ccc(C4=NC5(CC5)C(=O)N4CC4CN(C(=O)C5CC5)C4)cc3)cc2)n1 [compound 542, 6-{[1-(Cyclopropylcarbonyl)azetidin-3-yl]methyl}-5-[4′-(1-methyl-1H-pyrazol-3-yl)biphenyl-4-yl]-4,6-diazaspiro[2.4]hept-4-en-7-one] | 4470 | 832 | 1620 | > 10000 | 3020 | 89 | 692
17 | O=C(C1CC1)N1CC[C@@H](CN2C(=O)C3(CC3)N=C2c2ccc(-c3ccc4sccc4c3)cc2)C1 [compound 298, (R)-5-(4-(benzo[b]thiophen-5-yl)phenyl)-6-((1-(cyclopropanecarbonyl)pyrrolidin-3-yl)methyl)-4,6-diazaspiro[2.4]hept-4-en-7-one] | 66.1 | 58.9 | 26.9 | > 10000 | 617 | 100 | 21.9
18 | COc1cccc2cc(-c3ccc(C4=NC5(CC5)C(=O)N4CC4CN(C(=O)C5CC5)C4)c(F)c3)ccc12 [compound 635, 6-{[1-(Cyclopropylcarbonyl)azetidin-3-yl]methyl}-5-[2-fluoro-4-(5-methoxynaphthalen-2-yl)phenyl]-4,6-diazaspiro[2.4]hept-4-en-7-one] | 355 | 129 | 1350 | > 10000 | 1020 | 97 | 219
